Assay results: patent US20210393932A1, “DERMAL PATCHES AND GLASS SWABS FOR APPLICATION OF TOPICAL IMMUNOSENSITIZERS” (Squarex, LLC, priority 2020, published 2021)

Key:
[1] = tested on: herpes labialis outbreaks; assay: Phase 2 multi-center placebo-controlled study of single dose SADBE in recurrent herpes labialis; type: in vivo, human
Protocol: After institutional review board approval and written informed consent, this study was conducted at five centers in subjects with four or more herpes labialis episodes in the previous 12 months. Subjects were randomized to receive either (1) one dose of 2% SADBE in DMSO on day 1, (2) 2% SADBE on day 1 and a second lower dose (0.5%) “booster” on day 22, or (3) dimethylsulfoxide (DMSO) vehicle only on days 1 and 22. All subjects were followed for 1 year.
Doses were applied by dipping a cotton swab in a blindly labeled 1 ml vial of liquid study medication, then swabbing a spot on the inner aspect of the upper arm over an area of about 10 to 15 mm diameter encircled by petroleum jelly. After application, the spot was covered by TEGADERM™ dressing, and subjects were advised to remove the dressing and wipe the spot with a wet cloth 3 hours later. The weight of the vial of study medication with the vial standing in it was measured immediately before and immediately after dosing each subject. The difference was the net mass of drug applied. In most cases, 10 mg to 20 mg of drug solution was applied to the arm.

[2] = tested on: herpes labialis outbreaks; assay: Placebo-controlled Phase 1 clinical trial of SADBE in subjects with frequent herpes labialis outbreaks; type: in vivo, human
Protocol: Methods This exploratory, double-blind, randomized placebo-controlled study was conducted between November 2013 and September 2015 at Massachusetts General Hospital. Healthy adults, ages 18 to 69 years, who self-reported having 6 or more episodes of herpes labialis in the previous 12 months received a topical sensitization dose on the arm at the initial visit, and then received a topical treatment dose applied to a lesion during the first 2 herpes labialis episodes occurring at least 2 weeks after the sensitization dose. Participants were randomized 1:1:1 to receive dimethyl sulfoxide alone (placebo), 2.0% SADBE sensitization and 0.5% SADBE treatment doses, or 2.0% SADBE sensitization, 0.2% SADBE treatment doses. The study was approved by Partners Human Research Committee institutional review board, and all participants provided their written informed consent (clinicaltrials.gov identification No. NCT01971385). Results. Fifty-four patients were enrolled into the study; 43 patients had at least 1 form of contact (either in person or by phone) with research staff following the sensitizing dose and were included in the efficacy data analysis. The data analyzed involves 9 males and 34 females.
One planned primary end point was days to the next herpes labialis outbreak after the last treatment dose. […] Thus, we analyzed time to next outbreak after the sensitization dose. Data from patients who never experienced a first outbreak following sensitization were censored on the last available follow-up date and Kaplan-Meier time-to-event curves were estimated and graphed (FIG. 3). The median time to event for the placebo group was 40 days versus more than 122 days for the 2.0% SADBE group, which difference was highly significant (P=0.009).

[3] = HPLC analysis of test article vials and patch controls in air (guinea pig study); type: physicochemical
Protocol: Squaric acid dibutyl ester (SADBE) at 2% (w/v) concentration in dimethylsulfoxide (DMSO) was added to a skin patch for dermal dosing of SADBE to test for a delayed-type hypersensitivity response or other skin irritation. In the laboratories of Squarex HPLC analysis was conducted to analyze for SADBE content, for analysis of the dose formulation prepared by APS and to determine stability of the test article in the dermal patches during the application time and to test for residual SADBE in the dermal patches after 12 hours applied to the animals.
The skin patches consisted of a polymer backing layer similar to 3M 9916 polyester nonwoven backing layer with adhesive, 3M 9733 polyester film laminate barrier layer, and Precision Fabrics Group 0700-00010 polyester gauze layer. The gauze was heat sealed to the barrier layer. The gauze patch area was 1.53 cm^2.
The tubes of DMSO with patches were transported to the Squarex laboratory, shaken at 200 rpm for 1 hour or more, and then the DMSO from each tube was placed in an injection vial and analyzed for SADBE content by HPLC on a C18 column with the program SADBE3-50 ul. SADBE elutes in this program at about 24.0 minutes and absorbs at 255 nm, so the area of the 24.0 min peak at 255 nm was used to quantify SADBE. The SADBE degradation product squaric acid monobutyl ester (SAMBE) was also quantified by 255 nm area under the curve at the elution time of 12.7 minutes.
The test article vials of 2%, 6%, and 18% SADBE dissolved in DMSO complied with specifications and had the predicted concentrations of SADBE at 24 hours after preparation.
The results indicated the SADBE was stable for more than 12 hours in the patches when not exposed to animal skin. There was no apparent loss of SADBE or conversion of SADBE to SAMBE.

[4] = 2% patch control, 20 ul, >12 hours in air
[5] = 2% vial, SADBE in DMSO, 24 hours after preparation
[6] = 6% patch control, 20 ul, >12 hours in air
[7] = 6% vial, SADBE in DMSO, 24 hours after preparation
[8] = 18% patch control, 20 ul, >12 hours in air
[9] = 18% vial, SADBE in DMSO, 24 hours after preparation

CCCCOc1c(OCCCC)c(=O)c1=O [SADBE, squaric acid dibutyl ester]
time to next outbreak from day 43 to 121 ([1]; 1-dose group (2% SADBE in DMSO day 1) vs placebo, p=0.024): superior to the placebo group | proportion of subjects with an outbreak in days 43-121 ([1]; 1-dose group (9/39), placebo 46%, p=0.036): 23% | mean number of outbreaks in days 43-121 ([1]; 1-dose group, ± standard error, placebo 0.610±0.068, p=0.011): 0.231±0.125 | average number of moderate or severe outbreaks over days 1-365 ([1]; 1-dose, placebo 1.341±1.76, p=0.04): 0.641±0.931 | average number of moderate or severe outbreaks over days 43-121 ([1]; 1 dose of SADBE, placebo 0.390±0.703, p=0.04): 0.128±0.339 | outbreak measures vs placebo, 2-dose group ([1]; 2% SADBE day 1 and 0.5% booster day 22): superior to placebo these same measures, but not significantly so | severity of administration site reactions (most common adverse event) ([1]; topical 2% SADBE): all mild or moderate | time to resolution of administration site reactions ([1]; topical 2% SADBE): ≤ 3 months | median time to next herpes labialis outbreak after the sensitization dose ([2]; 2.0% SADBE sensitization dose on arm, Kaplan-Meier, placebo 40 days, P=0.009): more than 122 days | adverse event: itching and redness at the sensitization site ([2]; 2.0% SADBE, placebo 2 patients): 13 patients | adverse event: autosensitization dermatitis ([2]; exposed to the SADBE sensitization dose for 24 hours): 1 patient | tolerability ([2]; overall, patients): well tolerated | patients who did not experience another outbreak after sensitization ([2]; patients who received 2.0% SADBE for sensitization): 16 of 28 | % of expected SADBE [3, 4]: 106.0% | SAMBE as percent of SADBE [3, 4]: 0.95% | % of expected SADBE [3, 5]: 97.5% | SAMBE as percent of SADBE [3, 5]: 0.84% | % of expected SADBE [3, 6]: 94.5% | SAMBE as percent of SADBE [3, 6]: 1.05% | % of expected SADBE [3, 7]: 102.9% | SAMBE as percent of SADBE [3, 7]: 0.83% | % of expected SADBE [3, 8]: 100.3% | SAMBE as percent of SADBE [3, 8]: 1.01% | % of expected SADBE [3, 9]: 97.7% | SAMBE as percent of SADBE [3, 9]: 0.91% | time SADBE was stable in the patches ([3]; patches not exposed to animal skin, no apparent loss or conversion to SAMBE): more than 12 hours
